Measured values published in patent US10350192B2, “Lactate dehydrogenase inhibitor and antiepileptic drug containing the same” (NATIONAL UNIVERSITY CORPORATION OKAYAMA UNIVERSITY, priority 2015, dated 2019).
“And” between values parts separate entries of the source, which are not always exact repeats. Equal values may be shown once. “Also recorded” adds a separate entry of the source.

Key:
[1] = molecular target: human LDH-1 (Homo sapiens, UniProt P07195); assay: Lactate dehydrogenase activity by NADH light absorption at 340 nm, LDH-1; assay type: biochemical; details: 500 μM
Method: (§1) Evaluation of inhibition of lactate dehydrogenase by isosafrole (FIG. 4): The activity of lactate dehydrogenase was measured by a versatile method based on light absorption of NADH. Lactate dehydrogenase is an enzyme that interconverts pyruvate and lactate. At that time, NADH and NAD are also interconverted. For lactate dehydrogenase activity from lactate to pyruvate, lactate (20 mM), NAD (200 μM) and lactate dehydrogenase were added and the reaction rate of NADH produced was measured. On the other hand, for the lactate dehydrogenase activity from pyruvate to lactate, pyruvate (1.0 mM), NADH (200 μM) and lactate dehydrogenase were added and the reaction rate of decreasing NADH was measured. Both reactions were carried out at 37° C. in 100 mM sodium phosphate buffer (pH7.3). The light absorption of NADH at 340 nm was measured using an absorptiometer at 30 second intervals for 3.5 minutes to determine the reaction rate. Two kinds of human lactate dehydrogenase (human LDH-1 and LDH-5) were examined as lactate dehydrogenase. The amount of lactate dehydrogenase was set so that the maximum rates of the two lactate dehydrogenases were approximately the same: 0.0033 units/ml of LDH-1 and 0.01 units/ml of LDH-5 for the activity from lactate to pyruvate; and 0.0017 units/ml of LDH-1 and 0.0033 units/ml of LDH-5 for the activity from pyruvate to lactate. […]

[2] = molecular target: T1, human LDH-5 (Homo sapiens, UniProt P00338); assay: Lactate dehydrogenase activity by NADH light absorption at 340 nm, LDH-5; assay type: biochemical; details: 500 μM
Method: as §1

[3] = system: hippocampal sclerosis model mouse; assay: Epileptic spikes in hippocampal sclerosis model mouse (intrahippocampal kainate); assay type: in vivo
Method: Preparation and measurement of hippocampal sclerosis model mouse (FIGS. 1 to 3): The hippocampal sclerosis model mouse was prepared according to a previous literature (Non-Patent Document 15). Six to seven-week-old ICR mice were used for the experiment. Mice were fully anesthetized with a mixture of ketamine (100 mg/kg) and xylazine (20 mg/kg) and then set on a brain stereotaxic apparatus. Using a micro glass electrode and a Hamilton syringe from above the hippocampus of the head, a trace amount of kainate (0.8 nmol, 40 nL) for inducing epilepsy was injected into the dorsal hippocampus (1.6 mm behind the bregma, 1.6 mm laterally from the centerline, 1.4 mm deep from the brain surface), and then a metal electrode (a diameter of 200 μm) for epileptic electroencephalography was embedded near the kainic acid injection site. In addition, a small plastic U-shaped frame for head fixation required for in vivo electrical measurements was also attached to the head. After 2 weeks or more from surgery, epileptic spikes in the hippocampus were measured. The head was fixed via the U-shaped frame. Epileptic spikes were amplified, then measured via a band-pass filter (0.5-30 Hz) and taken into a computer using an AD converter. After measurement of the baseline electroencephalogram for 30 minutes, stiripentol (300 mg/kg), isosafrole (100-300 mg/kg), sodium oxamate (250-500 mg/kg), or physiological saline was intraperitoneally administered, and then further recording was conducted for 1 hour. Sodium oxamate was dissolved in water, and stiripentol and isosafrole were dissolved in sodium carboxymethyl cellulose (1%) and administered intraperitoneally. In data analysis, high-amplitude epilepsy spikes with an amplitude of 0.5 mV or more were counted 30 minutes before and after administration, respectively, and the efficacy was evaluated by normalization using the number of epileptic spikes before administration. In the observation of morphological changes due to hippocampal sclerosis, the brain was sliced to 300 μm thickness, fixed with 10% formalin, and stained with 0.05% cresylviolet.
Medial temporal lobe epilepsy with hippocampal sclerosis is a typical refractory epilepsy in adults (epilepsy for which existing drugs are not effective). First, according to a previous literature (Non-Patent Document 15), a trace amount of kainic acid was injected to a hippocampus to prepare hippocampal sclerosis model mouse (FIG. 1A). […] This is the same finding as the already reported hippocampal sclerosis model mouse (Non-Patent Document 15), which is similar to the symptom observed in human hippocampal sclerosis (Non-Patent Document 16). When recording on the hippocampus, spontaneous high-amplitude epileptic spikes were observed (FIG. 1C; arrowhead). […]

[4] = molecular target: T1, human LDH-5; assay: Lactate dehydrogenase inhibition rate, diaphorase/INT formazan coloring reaction (492 nm); assay type: biochemical
Method: Identification of a lactate dehydrogenase inhibitor having isosafrole as a scaffold (FIGS. 5 to 7): Since NADH absorbs light in the ultraviolet region (340 nm) and many compounds absorb the wavelength, NADH is not suitable for screening using a compound library. Therefore, in order to evaluate the lactate dehydrogenase activity from pyruvate to lactate, pyruvate (100 μM), NADH (100 μM) and lactate dehydrogenase (0.015 U/mL of human LDH-5) were firstly added, then allowed to react in a 100 mM sodium phosphate buffer (pH7.3) at 37° C. for 60 minutes (LDH enzyme reaction, 200 μL/well). At this stage, the background absorbance at 492 nm was first measured with a plate reader (absorbance before coloring reaction). Next, in order to measure the amount of NADH remaining in the LDH enzyme reaction, 100 μL/well of a coloring solution in which diaphorase (25 U/mL) and INT (5 mM) were dissolved was added, and then allowed to react in a 100 mM sodium phosphate buffer (pH7.3) at 37° C. for 10 minutes (coloring reaction). Since INT changes to INT formazan by diaphorase in the presence of NADH and develops color, the absorbance at 492 nm of INT formazan was measured with a plate reader (absorbance after coloring reaction).
Calculation of the inhibition rate (% Inhibition) is as follows. ΔA when the above reaction was carried out under the condition that lactate dehydrogenase was present was taken as “0% control value”, and ΔA when the above reaction was carried out under the condition that lactate dehydrogenase was absent was taken as “100% control value”. […] Then, the same reaction as the 0% control was carried out in the presence of a compound having isosafrole as a scaffold, and resultant ΔA was defined as “ΔA in the presence of the compound”. […] Specifically, inhibition rate is calculated as follows: Inhibition rate (%)=100×(ΔA in the presence of the compound−0% control value)/(100% control value−0% control value). Compounds showing inhibition rate of 100% (±25%) were described in FIGS. 6 and 7 as lactate dehydrogenase inhibitor. […]

[5] = rats, 300 mg/kg intraperitoneal; cited from earlier work
[6] = system: pentylenetetrazole-induced acute epileptic seizures; details: rats, 300 mg/kg intraperitoneal; cited from earlier work
[7] = 300 mg/kg intraperitoneal, high-amplitude spikes 30 min after vs before administration

Chain of human LDH-1 (P07195 2-334 limits assumed): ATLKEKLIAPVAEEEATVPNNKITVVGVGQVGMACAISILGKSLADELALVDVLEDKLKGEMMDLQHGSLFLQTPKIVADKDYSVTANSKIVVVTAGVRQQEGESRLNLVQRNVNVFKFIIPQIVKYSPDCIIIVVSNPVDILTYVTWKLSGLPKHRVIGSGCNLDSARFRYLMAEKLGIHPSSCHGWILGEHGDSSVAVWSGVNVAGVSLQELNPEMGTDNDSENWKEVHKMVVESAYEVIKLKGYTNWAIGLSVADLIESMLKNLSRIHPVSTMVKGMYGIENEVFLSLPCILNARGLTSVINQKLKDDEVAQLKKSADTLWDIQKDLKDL

Compound	effect on lactate dehydrogenase activity from lactate to pyruvate ([1]; Lactate→Pyruvate)	effect on lactate dehydrogenase activity from pyruvate to lactate ([1]; Pyruvate→Lactate)	effect on lactate dehydrogenase activity from lactate to pyruvate ([2]; Lactate→Pyruvate)	effect on lactate dehydrogenase activity from pyruvate to lactate ([2]; Pyruvate→Lactate)	antiepileptic effect on epileptic spikes [3, 7]	antiepileptic effect on epileptic spikes ([3]; 200-300 mg/kg intraperitoneal)	inhibition of lactate dehydrogenase (LDH-5) ([4]; 250 μM)	inhibition of lactate dehydrogenase (LDH-5) ([4]; 500 μM)	inhibition of lactate dehydrogenase (LDH-5) ([4]; 500 μM, listed as Isosafrole)	plasma concentration [5]	suppression of pentylenetetrazole-induced acute epileptic seizures [6]	antiepileptic effect on epileptic spikes ([3]; 500 mg/kg intraperitoneal)
C/C=C/c1ccc2c(c1)OCO2 [isosafrole, 5-(1-propenyl)-1,3-benzodioxole]	inhibitory effect	inhibitory effect was strong	inhibitory effect	inhibitory effect was strong	significantly suppressed; also recorded: remarkable inhibitory effect on epilepsy	remarkable antiepileptic effect	not	inhibited	inhibits	–	–	–
CC(C)(C)C(O)/C=C/c1ccc2c(c1)OCO2 (stereo not shown) [stiripentol, 4-dimethyl-1-[(3,4-methylenedioxy)-phenyl]-1-penten-3-ol]	–	–	–	–	scarcely inhibited; also recorded: little antiepileptic effect; also recorded: almost no inhibitory effect	–	–	–	–	20-100 μg/ml and 85-427 μM	suppressed	–
NC(=O)C(=O)[O-].[Na+] [sodium oxamate]	–	–	–	–	–	–	–	–	–	–	–	weak anti-epileptic effect
